MIC data for six compounds are collected here from patent US9273084B2, “Moenomycin analogs, methods of synthesis, and uses thereof” (priority 2012, dated 2016).

Assay type in all cases: cell-based
One assay has as its system E. coli NR698. On the set-up: unit not given beside the values. The following applies: LB, 35-37° C., 20 h. On the procedure:
(§1) A 96 well plate with 100 μL test medium in all wells was prepared by handheld multipipettor. A stock solution of the antibiotic or compound in DMSO (0.05˜10 mg/mL, 5 μL) and the same medium (95 μL) were put together into column one, where the compound concentration doubled the highest one to be tested. Two columns were necessary for each compound to check the reproducibility. The compound was diluted by adding 100 μL from column one to column two with a 50% volume mix done three times; diluting serially across the plate was continued.
(§2) The day before the assay was scheduled to be run, strains were suspended in the test media (Brain Heart Infusion (BHI) containing 0.1% casamino acids for S. aureus, S. epidermidis, and E. faecalis, Trypticase Soy Broth (TSB) containing 5% sheep blood for S. pneumoniae, and Lysogeny Broth (LB) for E. coli) and incubated overnight at 35-37° C. The suspension was diluted with the same media to 1%, 100 μL of which was added to each well of the MIC plate. The MIC plate was incubated at 35-37° C. for 20 h. A thiazolyl blue tetrazolium bromide (MTT) solution (1 mg/mL-water, 50 μL) was added into each well and the resulting MIC plate was incubated at 35-37° C. for a few hours to stain wells in which cell proliferated. Growth is also visible as any turbidity in wells.

In the next assay the test system is S. aureus 25923. Put plainly: MIC assay, 96 well broth dilution with MTT staining. On the set-up: unit not given beside the values. The settings on record: S. aureus 25923 (second strain line); BHI containing 0.1% casamino acids; 35-37° C., 20 h. The protocol: as §1, §2
Another assay deals with E. coli MG1655. The description is as above. Also noted: unit not given beside the values. The settings on record: LB, 35-37° C., 20 h. The protocol:
as §1, §2

The next assay has as its system S. aureus 13709. The assay is described as above. On the set-up: unit not given beside the values. The following applies: BHI containing 0.1% casamino acids, 35-37° C., 20 h. The protocol:
as §1, §2

A further assay has as its system S. pneumoniae #1629. The description is as above. The following applies: TSB containing 5% sheep blood, 35-37° C., 20 h. On the procedure:
as §1, §2

Another assay relates to S. pneumoniae 6303. The assay is described as above. The following applies: TSB containing 5% sheep blood, 35-37° C., 20 h. The protocol: as §1, §2
A further assay concerns S. epidermidis 1228. Described as above. On the set-up: unit not given beside the values. The settings on record: BHI containing 0.1% casamino acids, 35-37° C., 20 h. On the procedure:
as §1, §2

In the next assay the test system is S. epidermidis 700562. The description is as above. On the set-up: unit not given beside the values. The settings on record: BHI containing 0.1% casamino acids, 35-37° C., 20 h. The protocol: as §1, §2
In the next assay the test system is E. faecalis 29212. The description is as above. On the set-up: unit not given beside the values. The settings on record: BHI containing 0.1% casamino acids, 35-37° C., 20 h. The protocol:
as §1, §2

The subject of another assay is E. faecalis 33186. Described as above. Also noted: unit not given beside the values. The following applies: BHI containing 0.1% casamino acids, 35-37° C., 20 h. On the procedure:
as §1, §2

[1] abbreviates: S. aureus 13709 (first strain line).
Where [2] appears, read: S. aureus 13709 (third strain line).

The structures appear in SMILES notation.

In the case of `CC(=O)NC1C(OC2C(COC3OC(CO)C(O)C(O)C3O)OC(OC3C(OP(=O)(O)OCC(OCC=C(C)CCC=C(C)CCC=C(C)CCC=C(C)C)C(=O)O)OC(C(N)=O)C(C)(O)C3OC(N)=O)C(NC(C)=O)C2O)OC(C)C(OC2OC(C(=O)NC3=C(O)CCC3=O)C(O)C(O)C2O)C1O.N` [1b, N1-[(2-Hydroxy-5-oxo-cyclopenten-1-yl)-(5S)-β-D-galactopyranuronamide]-(1→4)-2-acetamide-2,6-dideoxy-β-D-gluopyranosyl-(1→4)-[β-D-glucopyranosyl-(1→6)]-2-acetamido-2-deoxy-β-D-glucopyranosyl)-(1→2)-3-O-carbamoyl-1-O—{[(R)-2-carboxy-2-((2Z,6E,10E)-3,7,11,15-tetramethyl-hexadeca-2,6,10,14-tetraen-1-yloxy)ethoxy]hydroxyphosphoryl}-4-C-methyl-α-D-glucopyranuronamide], the MIC against E. coli NR698 was determined as 0.061; against S. aureus 25923, 3.9; against E. coli MG1655, 63; against S. aureus 13709 (setting [1]), 3.9; with S. aureus 13709 (setting [2]), 2.0; against S. pneumoniae #1629 it was 3.9. Also, the MIC against S. pneumoniae 6303 was 2.0.

`CC(=O)NC1C(OC2C(COC3OC(CO)C(O)C(O)C3O)OC(OC3C(OP(=O)(O)OCC(OCC=C(C)CCC=C(C)CCC=C(C)C)C(=O)O)OC(C(N)=O)C(C)(O)C3OC(N)=O)C(NC(C)=O)C2O)OC(C)C(OC2OC(C(=O)NC3=C(O)CCC3=O)C(O)C(O)C2O)C1O.N` [1c, N1-[(2-Hydroxy-5-oxo-cyclopenten-1-yl)-(5S)-β-D-galactopyranuronamide]-(1→4)-2-acetamide-2,6-dideoxy-β-D-gluopyranosyl-(1→4)-[β-D-glucopyranosyl-(1→6)]-2-acetamido-2-deoxy-β-D-glucopyranosyl)-(1→2)-3-O-carbamoyl-1-O—{[(R)-2-carboxy-2-((2Z,6E)-3,7,11-trimethyl-dodeca-2,6,10-trien-1-yloxy)ethoxy]hydroxyphosphoryl}-4-C-methyl-α-D-glucopyranuronamide]: the MIC in the assay with E. coli NR698 is listed as 0.98; in the assay on S. epidermidis 1228, >250 >250; with S. epidermidis 700562, >250 >250; in the assay with S. aureus 25923, >250 >250 250; in the assay with E. coli MG1655, more than 250; against E. faecalis 29212, 250 >250. The MIC was 250 >250 with E. faecalis 33186; >250 >250 250 in the assay with S. aureus 13709 (setting [1]); >250 >250 250 in the assay on S. aureus 13709 (setting [2]); 31 in the assay with S. pneumoniae #1629; 63 against S. pneumoniae 6303.

Take `CCCCCCCCCCCCCCCCCCCCOC(COP(=O)(O)OC1OC(C(N)=O)C(C)(O)C(OC(N)=O)C1OC1OC(COC2OC(CO)C(O)C(O)C2O)C(OC2OC(C)C(OC3OC(C(=O)NC4=C(O)CCC4=O)C(O)C(O)C3O)C(O)C2NC(C)=O)C(O)C1NC(C)=O)C(=O)O.N` [1d, N1-[(2-Hydroxy-5-oxo-cyclopenten-1-yl)-(5S)-β-D-galactopyranuronamide]-(1→4)-2-acetamide-2,6-dideoxy-β-D-gluopyranosyl-(1→4)-[β-D-glucopyranosyl-(1→6)]-2-acetamido-2-deoxy-β-D-glucopyranosyl)-(1→2)-3-O-carbamoyl-1-O—{[(R)-2-carboxy-2-(eicosan-1-yloxy)ethoxy]hydroxyphosphoryl}-4-C-methyl-α-D-glucopyranuronamide]: the MIC came out at 0.0049 with E. coli NR698; 0.63 against S. epidermidis 1228; 1.3 in the assay on S. epidermidis 700562; 0.63 in the assay with S. aureus 25923; 7.8 in the assay with E. coli MG1655; 1.3 in the assay with S. aureus 13709 (setting [1]). In addition, the values for the MIC in the assay with S. aureus 13709 (setting [2]), with S. pneumoniae #1629 and against S. pneumoniae 6303 were 0.63, 3.1 and 2.0, respectively.

Consider `CCCCCCCCCCCCCCCCCCOC(COP(=O)(O)OC1OC(C(N)=O)C(C)(O)C(OC(N)=O)C1OC1OC(COC2OC(CO)C(O)C(O)C2O)C(OC2OC(C)C(OC3OC(C(=O)NC4=C(O)CCC4=O)C(O)C(O)C3O)C(O)C2NC(C)=O)C(O)C1NC(C)=O)C(=O)O.N` [1e, N1-[(2-Hydroxy-5-oxo-cyclopenten-1-yl)-(5S)-β-D-galactopyranuronamide]-(1→4)-2-acetamide-2,6-dideoxy-β-D-gluopyranosyl-(1→4)-[β-D-glucopyranosyl-(1→6)]-2-acetamido-2-deoxy-β-D-glucopyranosyl)-(1→2)-3-O-carbamoyl-1-O—{[(R)-2-carboxy-2-(octadecan-1-yloxy)ethoxy]hydroxyphosphoryl}-4-C-methyl-α-D-glucopyranuronamide], for which the MIC in the assay on E. coli NR698 is listed as 0.0024; against S. aureus 25923 it was 0.98; against E. coli MG1655, 63; against E. faecalis 29212 it was 0.49; in the assay with E. faecalis 33186, 0.98; with S. aureus 13709 (setting [1]), 2.0. For the same compound, in the assay with S. aureus 13709 (setting [2]), the MIC came out at 0.98.

`CC(=O)NC1C(OC2C(COC3OC(CO)C(O)C(O)C3O)OC(OC3C(OP(=O)(O)OCC(OCCCCCCCCCCC(F)(F)C(F)(F)C(F)(F)C(F)(F)C(F)(F)C(F)(F)C(F)(F)C(F)(F)F)C(=O)O)OC(C(N)=O)C(C)(O)C3OC(N)=O)C(NC(C)=O)C2O)OC(C)C(OC2OC(C(=O)NC3=C(O)CCC3=O)C(O)C(O)C2O)C1O.N` [1f, N1-[(2-Hydroxy-5-oxo-cyclopenten-1-yl)-(5S)-β-D-galactopyranuronamide]-(1→4)-2-acetamide-2,6-dideoxy-β-D-gluopyranosyl-(1→4)-[β-D-glucopyranosyl-(1→6)]-2-acetamido-2-deoxy-β-D-glucopyranosyl)-(1→2)-3-O-carbamoyl-1-O—{[(R)-2-carboxy-2-(11,11,12,12,13,13,14,14,15,15,16,16,17,17,18,18,18-heptadecafluoro-octadecan-1-yloxy)ethoxy]hydroxyphosphoryl}-4-C-methyl-α-D-glucopyranuronamide]: the MIC is recorded as more than 0.16 in the assay on E. coli NR698; 0.98 against S. epidermidis 1228; 2.0 in the assay with S. epidermidis 700562; 2.0 against S. aureus 25923; 250 in the assay on E. coli MG1655; 0.98 against E. faecalis 29212. Further, the MIC is 2.0 in the assay with E. faecalis 33186; 3.9 with S. aureus 13709 (setting [1]); 2.0 in the assay on S. aureus 13709 (setting [2]); 0.98 with S. pneumoniae #1629; 2.0 in the assay with S. pneumoniae 6303.

In the case of `CC(=O)NC1C(OC2C(COC3OC(CO)C(O)C(O)C3O)OC(OC3C(OP(=O)(O)OCC(OCc4cccc(OCc5cccc(-c6cccc(OCc7cccc(-c8ccccc8)c7)c6)c5)c4)C(=O)O)OC(C(N)=O)C(C)(O)C3OC(N)=O)C(NC(C)=O)C2O)OC(C)C(OC2OC(C(=O)NC3=C(O)CCC3=O)C(O)C(O)C2O)C1O.N` [1h, N1-[(2-Hydroxy-5-oxo-cyclopenten-1-yl)-(5S)-β-D-galactopyranuronamide]-(1→4)-2-acetamide-2,6-dideoxy-β-D-gluopyranosyl-(1→4)-[β-D-glucopyranosyl-(1→6)]-2-acetamido-2-deoxy-β-D-glucopyranosyl)-(1→2)-3-O-carbamoyl-1-O—{[(R)-2-carboxy-2-(3-((3′-([1,1′-biphenyl]-3-ylmethoxy)-[1,1′-biphenyl]-3-yl)methoxy)phenylmethan-1-yloxy)ethoxy]hydroxyphosphoryl}-4-C-methyl-α-D-glucopyranuronamide], the MIC in the assay on E. coli NR698 came out at 0.039; against S. aureus 25923, 0.20; in the assay on E. coli MG1655, 125; against E. faecalis 29212, 0.39; with E. faecalis 33186 it was 0.78; against S. aureus 13709 (setting [1]) it was 0.39. The MIC is recorded as 0.20 in the assay on S. aureus 13709 (setting [2]), 2.0 against S. pneumoniae #1629 and 0.98 against S. pneumoniae 6303.
